# Measurements reported in patent publication US20070213402A1, “Compounds which interact with the thyroid hormone receptor for the treatment of fibrotic disease” (priority 1998, published 2007).
# Assays:
# collagenase I promoter = experiment: Experiment 1: collagenase I promoter (-73/+63)-luciferase in CV1 cells transfected with pSG5ARF (androgen receptor); assay type: cell-based, African Green Monkey; details: for % control (AR): Blank = 100
# Description: (§1) Two plasmid constructs were introduced by standard calcium phosphate precipitation of DNA followed by glycerol shock (Ausubel F M, Brent R, Kingston D D, Moore J G et al Current protocols in molecular biology 1994 Greene Publishing Associates/Wiley-Interscience, New York, N.Y.) using a transformed African Green Monkey kidney cell line (CV1) (Schneikert J, Peterziel H, Defossez P-A, Klocker H, de Launoit Y and Cato A C B Androgen receptor-Ets protein interaction is a novel mechanism for steroid hormone-mediated down-modulation of matrix metalloproteinase expression, Journal of Biological Chemistry. Vol 271(39) (pp 23907-23913), 1996).
# Accordingly, the following two plasmids were included into CV1 cells described above — • (a) Either of GR1 or pSG5ARF containing glucocorticoid or androgen receptor (AR) respectively, both at 2 ug per 5×10^5 cells, driven by the Rous sarcoma virus promoter, and • (b) a plasmid containing the −73/+63 portion of the collagenase I promoter linked to luciferase gene at 8 ug per 5×10^5 cells.
# CPII was compound II above, clobuzarit.
# [1] = system: collagenase (MMP-1) promoter; experiment: Experiment 4.3: collagenase (MMP-1) promoter-luciferase in MCF-7 cells with transfected chick thyroid hormone receptor; assay type: cell-based, human; details: MCF-7 + chick thyroid hormone receptor; for % Control: Blank = 100
# Method: These experiments were intended to identify the receptor through which compounds I might be acting to block collagenase promoter activity.
# Transfection procedure hereinbefore described with CV1 cells was repeated using MCF-7 mammary breast cancer cells derived from pleural effusion from a breast cancer patient. Additionally, each experiment included transfection of a plasmid (at 8 ug per 5×10^5 cells) containing the −517/+63 section of the collagenase (MMP-1) promoter linked to the luciferase gene. TPA was used as above to stimulate activity of the collagenase promoter resulting in luciferase production. Compound II or 3,3,5-triiodo-L-thyronine (T3) was included (both at 10^−8M), the latter being a known ligand for the thyroid hormone receptor.
# pro-MMP-1 = experiment: Experiment 5: immunoblot of pro-MMP-1 in rheumatoid fibroblasts; assay type: cell-based, human; details: 36 hours, 10 ng/ml TPA plus 5×10^-7M substance, compared to TPA alone (lane 5)
# Method: Rheumatoid fibroblasts were cultured from synovium obtained from the knee joint of a patient with rheumatoid arthritis. Cells were cultured in monolayer with DMEM tissue culture medium (Gibco) with the inclusion of 5% v/v charcoal stripped serum in 75 cm^2 flasks. The cells were treated for 36 hours with the addition of 10 ng/ml TPA (phorbol ester) plus 5×10^−7M thyroid hormone, Compound II or Compound III. TPA and drugs were added at time zero and at 30 hours, the TPA addition ensured phosphorylation of c-jun.
# After 36 hours, cells were lysed in phosphate buffered saline (PBS) containing protease inhibitors and 0.1% Triton-X-100, and then boiled for 5 minutes in non-reducing gel loading buffer. Samples of cell lysate corresponding to equal cell number were loaded onto a 12.5% SDS polyacrylamide gel, and electrophoresis using a Bio-Rad™, (Bio-Rad Laboratories, California USA) Mini Protean II cell was performed at approximately 100V for one hour.
# Transfer of proteins to nitrocellulose membrane was performed using a Bio-Rad Mini Trans-Blot transfer cell.
# Immunoblotting was performed using polyclonal rabbit anti-human phosphorylation specific (set 73) c-jun (cat. No 06659, Upstate Biotechnology), or MMP-1 (cat. No. RDI-MMP1Habr, Research Diagnostics) antibodies diluted 1:1000 in Tris buffered saline+3% fat free milk powder. […]
# glucocorticoid receptor = target: T1, glucocorticoid receptor (Homo sapiens, UniProt P04150); experiment: Experiment 2: PGL3MMTV-luciferase transactivation in CV1 cells with glucocorticoid receptor (GR1); assay type: cell-based; details: for % control (GR1): Blank = 100
# T1 construct: expressed in transfected cells; host or cells: CV1 (transformed African Green Monkey kidney cell line)
# T1 sequence (P04150 1-777): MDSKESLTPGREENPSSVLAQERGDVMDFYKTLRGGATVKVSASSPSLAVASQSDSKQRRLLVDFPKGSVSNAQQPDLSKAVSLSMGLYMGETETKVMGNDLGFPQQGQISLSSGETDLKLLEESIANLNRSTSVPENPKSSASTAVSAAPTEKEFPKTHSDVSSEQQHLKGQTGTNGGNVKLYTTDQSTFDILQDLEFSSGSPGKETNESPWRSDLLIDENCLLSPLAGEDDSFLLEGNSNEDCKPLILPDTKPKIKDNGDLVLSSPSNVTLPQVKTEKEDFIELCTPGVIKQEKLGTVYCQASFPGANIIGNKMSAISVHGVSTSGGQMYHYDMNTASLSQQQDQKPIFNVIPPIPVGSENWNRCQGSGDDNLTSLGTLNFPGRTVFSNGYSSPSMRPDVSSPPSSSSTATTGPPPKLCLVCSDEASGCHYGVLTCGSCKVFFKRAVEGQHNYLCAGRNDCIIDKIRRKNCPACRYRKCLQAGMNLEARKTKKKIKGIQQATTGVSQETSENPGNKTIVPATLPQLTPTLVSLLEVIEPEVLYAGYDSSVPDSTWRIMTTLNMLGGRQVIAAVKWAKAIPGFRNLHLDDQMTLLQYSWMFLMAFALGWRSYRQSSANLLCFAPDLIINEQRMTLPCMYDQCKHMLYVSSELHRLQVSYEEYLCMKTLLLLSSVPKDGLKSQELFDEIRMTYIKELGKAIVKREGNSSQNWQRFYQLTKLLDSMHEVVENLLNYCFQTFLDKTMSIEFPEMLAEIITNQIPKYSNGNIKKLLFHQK
# Description: as §1
# This experiment was intended to investigate the activation of androgen and corticosteroid receptors by compound I.
# CPII was compound II above, clobuzarit, which was used at 10^−7M.
# [2] = substance added with TPA 75 ng/ml, DHT 10^-7M
# [3] = substance 10^-8M added with TPA
# [4] = CPII 10^-7M together with Dex 10^-7M
smiles,measurement,setting,value
"CC(C)(OCc1ccc(-c2ccc(Cl)cc2)cc1)C(=O)O [Compound II, 1-[4-(4-chlorophenyl)benzyloxy]-1-methylpropionic acid]",% control (AR),collagenase I promoter; substance added alone,51%
same,Raw counts (AR),"collagenase I promoter; substance added alone, TPA 75 ng/ml",1374 counts
same,Raw counts (AR),collagenase I promoter; [2],5986 counts
same,% control (AR),collagenase I promoter; [2],224%
same,"collagenase I activation, in words (AR)","collagenase I promoter; TPA-stimulated, androgen receptor",able to down regulate collagenase I activation
same,"stimulated collagenase transcription, in words",[1]; TPA,able to reduce stimulated collagenase transcription
same,Raw Counts,[1]; [3],4414 counts
same,% Control,[1]; [3],202%
same,% Control,[1]; substance added alone,72%
same,Raw Counts,"[1]; substance added alone, CPII 10^-8M",1572 counts
same,"amount of pro-MMP-1, band intensity",pro-MMP-1,lower intensity
same,"activation of glucocorticoid receptor-driven transcription, in words","glucocorticoid receptor; 10^-7M, compared with Dex",negligible activity
same,Raw counts (GR1),glucocorticoid receptor; [4],748249 counts
same,% control (GR1),glucocorticoid receptor; [4],20965%
same,Raw counts (GR1),glucocorticoid receptor; substance alone at 10^-7M,3272 counts
same,% control (GR1),glucocorticoid receptor; substance alone at 10^-7M,92%
